What was measured:
Assay in all cases: KAM-matrix competition in K562 lysate;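 for 0.001 uM KAM: median log10 fold change of treatment over DMSO control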;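 for 0.01 uM KAM: median log10 fold change of treatment over DMSO control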;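 for 0.1 uM KAM: median log10 fold change of treatment over DMSO control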;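 for 1 uM KAM: median log10 fold change of treatment over DMSO control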;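 for 10 uM KAM: median log10 fold change of treatment over DMSO control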
Assay type in all cases: binding
CDC7 = target: T1, CDC7 (Homo sapiens, UniProt O00311);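 for 0.001 uM KAM: median log10 fold change of treatment over DMSO control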;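 for 0.01 uM KAM: median log10 fold change of treatment over DMSO control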;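 for 0.1 uM KAM: median log10 fold change of treatment over DMSO control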;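 for 1 uM KAM: median log10 fold change of treatment over DMSO control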;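 for 10 uM KAM: median log10 fold change of treatment over DMSO control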
T1 construct: endogenous in cells; host or cells: K562 lysate
Protocol: (§1) Supplement 12953_2017_125_MOESM1_ESM.zip/MS_Supp Info.xlsx, sheet "KAM" | column: 10 uM KAM; 1 uM KAM; 0.1 uM KAM; 0.01 uM KAM; 0.001 uM KAM; RB50

CAMKK2 = target: T2, CAMKK2 (Homo sapiens, UniProt Q96RR4)
T2 construct: endogenous in cells; host or cells: K562
Protocol: as §1

MAST4 = target: T3, MAST4 (Homo sapiens, UniProt O15021)
T3 construct: endogenous in cells; host or cells: K562
Protocol: as §1

PKMYT1 = target: T4, PKMYT1 (Homo sapiens, UniProt Q99640);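 for 0.001 uM KAM: median log10 fold change of treatment over DMSO control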;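 for 0.01 uM KAM: median log10 fold change of treatment over DMSO control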;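 for 0.1 uM KAM: median log10 fold change of treatment over DMSO control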;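 for 1 uM KAM: median log10 fold change of treatment over DMSO control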;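 for 10 uM KAM: median log10 fold change of treatment over DMSO control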
T4 construct: endogenous in cells; host or cells: K562
T4 sequence (Q99640 1-499): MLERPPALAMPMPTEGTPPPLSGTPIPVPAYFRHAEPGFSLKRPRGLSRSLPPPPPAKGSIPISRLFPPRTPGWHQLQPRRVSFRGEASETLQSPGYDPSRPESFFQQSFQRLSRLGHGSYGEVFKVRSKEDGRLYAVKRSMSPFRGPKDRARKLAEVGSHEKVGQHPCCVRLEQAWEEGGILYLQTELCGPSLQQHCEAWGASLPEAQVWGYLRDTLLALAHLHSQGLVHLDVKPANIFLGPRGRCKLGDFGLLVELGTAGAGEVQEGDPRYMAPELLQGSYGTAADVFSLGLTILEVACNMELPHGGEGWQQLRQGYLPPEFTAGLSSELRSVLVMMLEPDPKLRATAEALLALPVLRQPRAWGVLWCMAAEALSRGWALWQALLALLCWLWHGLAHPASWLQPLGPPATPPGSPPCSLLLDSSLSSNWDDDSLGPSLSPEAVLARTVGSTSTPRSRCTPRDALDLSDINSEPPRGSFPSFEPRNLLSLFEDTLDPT
Protocol: as §1

BMPR2 = target: T5, BMPR2 (Homo sapiens, UniProt Q13873);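 for 0.001 uM KAM: median log10 fold change of treatment over DMSO control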;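 for 0.01 uM KAM: median log10 fold change of treatment over DMSO control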;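 for 0.1 uM KAM: median log10 fold change of treatment over DMSO control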;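 for 1 uM KAM: median log10 fold change of treatment over DMSO control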;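 for 10 uM KAM: median log10 fold change of treatment over DMSO control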
T5 construct: endogenous in cells; host or cells: K562
T5 sequence (Q13873 27-1038): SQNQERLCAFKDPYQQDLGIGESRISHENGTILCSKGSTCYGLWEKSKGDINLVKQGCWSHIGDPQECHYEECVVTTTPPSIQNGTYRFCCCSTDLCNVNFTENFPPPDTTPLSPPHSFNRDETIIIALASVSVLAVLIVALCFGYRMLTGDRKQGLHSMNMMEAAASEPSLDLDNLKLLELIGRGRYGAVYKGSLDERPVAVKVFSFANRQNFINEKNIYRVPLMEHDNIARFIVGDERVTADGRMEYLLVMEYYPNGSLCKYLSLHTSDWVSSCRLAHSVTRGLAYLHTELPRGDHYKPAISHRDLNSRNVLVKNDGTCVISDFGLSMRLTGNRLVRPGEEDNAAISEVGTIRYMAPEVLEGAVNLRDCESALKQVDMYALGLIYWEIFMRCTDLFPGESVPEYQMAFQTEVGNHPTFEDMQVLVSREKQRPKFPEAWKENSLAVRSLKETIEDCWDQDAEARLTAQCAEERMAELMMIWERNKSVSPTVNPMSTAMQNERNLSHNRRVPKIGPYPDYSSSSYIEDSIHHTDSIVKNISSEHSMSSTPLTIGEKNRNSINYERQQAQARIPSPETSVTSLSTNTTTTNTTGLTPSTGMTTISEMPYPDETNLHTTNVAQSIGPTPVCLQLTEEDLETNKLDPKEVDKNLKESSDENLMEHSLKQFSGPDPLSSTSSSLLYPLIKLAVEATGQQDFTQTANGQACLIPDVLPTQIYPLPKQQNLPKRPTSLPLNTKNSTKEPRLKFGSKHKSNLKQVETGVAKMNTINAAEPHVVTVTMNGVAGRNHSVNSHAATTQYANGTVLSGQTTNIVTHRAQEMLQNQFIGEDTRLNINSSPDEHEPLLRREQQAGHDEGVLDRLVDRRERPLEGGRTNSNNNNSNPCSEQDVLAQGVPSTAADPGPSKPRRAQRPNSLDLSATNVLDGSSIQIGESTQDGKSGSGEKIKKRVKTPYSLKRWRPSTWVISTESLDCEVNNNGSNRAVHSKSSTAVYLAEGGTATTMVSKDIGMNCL
Protocol: as §1

PAK2 = target: T6, PAK2 (Homo sapiens, UniProt Q13177);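 for 0.001 uM KAM: median log10 fold change of treatment over DMSO control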;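 for 0.01 uM KAM: median log10 fold change of treatment over DMSO control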;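 for 0.1 uM KAM: median log10 fold change of treatment over DMSO control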;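 for 1 uM KAM: median log10 fold change of treatment over DMSO control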;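 for 10 uM KAM: median log10 fold change of treatment over DMSO control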
T6 construct: endogenous in cells; host or cells: K562
Protocol: as §1

YES1 = target: T7, YES1 (Homo sapiens, UniProt P07947)
T7 construct: endogenous in cells; host or cells: K562
Protocol: as §1

[1] = KAM 0.001-10 uM, read-out: RB50 (the source's name)
[2] = read-out: RB50 (the source's name)

N#CCc1ccc(Nc2nc(NCCCN)cc(Nc3cc(C4CC4)[nH]n3)n2)cc1 [KAM]
IC50 (CDC7; [1]): > 10 µM
0.001 uM KAM (CDC7; relative to 0 uM KAM = 0): -0.007298
0.01 uM KAM (CDC7; relative to 0 uM KAM = 0): -0.03198
0.1 uM KAM (CDC7; relative to 0 uM KAM = 0): -0.1182
1 uM KAM (CDC7; relative to 0 uM KAM = 0): -0.2032
10 uM KAM (CDC7; relative to 0 uM KAM = 0): -0.1853
median Log10 fold change (CAMKK2; 0.001 uM KAM): 0.007982
median Log10 fold change (CAMKK2; 0.01 uM KAM): -0.006148
median Log10 fold change (CAMKK2; 0.1 uM KAM): -0.132
median Log10 fold change (CAMKK2; 1 uM KAM): -0.4329
median Log10 fold change (CAMKK2; 10 uM KAM): -0.5591
IC50 (CAMKK2; [2]): 0.553 µM
median Log10 fold change (MAST4; 0.001 uM KAM): -0.03696
median Log10 fold change (MAST4; 0.01 uM KAM): 0.002822
median Log10 fold change (MAST4; 0.1 uM KAM): -0.135
median Log10 fold change (MAST4; 1 uM KAM): -0.3289
median Log10 fold change (MAST4; 10 uM KAM): -0.3337
IC50 (MAST4; [2]): 1.26 µM
IC50 (PKMYT1; [1]): > 10 µM
0.001 uM KAM (PKMYT1; relative to 0 uM KAM = 0): -0.05315
0.01 uM KAM (PKMYT1; relative to 0 uM KAM = 0): -0.03451
0.1 uM KAM (PKMYT1; relative to 0 uM KAM = 0): -0.2607
1 uM KAM (PKMYT1; relative to 0 uM KAM = 0): -0.4249
10 uM KAM (PKMYT1; relative to 0 uM KAM = 0): -0.2726
IC50 (BMPR2; [1]): 6.67 µM
0.001 uM KAM (BMPR2; relative to 0 uM KAM = 0): 0.0006826
0.01 uM KAM (BMPR2; relative to 0 uM KAM = 0): -0.02948
0.1 uM KAM (BMPR2; relative to 0 uM KAM = 0): -0.09644
1 uM KAM (BMPR2; relative to 0 uM KAM = 0): -0.1591
10 uM KAM (BMPR2; relative to 0 uM KAM = 0): -0.3053
IC50 (PAK2; [1]): > 10 µM
0.001 uM KAM (PAK2; relative to 0 uM KAM = 0): 0.07363
0.01 uM KAM (PAK2; relative to 0 uM KAM = 0): 0.03748
0.1 uM KAM (PAK2; relative to 0 uM KAM = 0): 0.116
1 uM KAM (PAK2; relative to 0 uM KAM = 0): 0.1461
10 uM KAM (PAK2; relative to 0 uM KAM = 0): 0.07777
median Log10 fold change (YES1; 0.001 uM KAM): 0.00764
median Log10 fold change (YES1; 0.01 uM KAM): 0.01465
median Log10 fold change (YES1; 0.1 uM KAM): -0.1546
median Log10 fold change (YES1; 1 uM KAM): -0.4462
median Log10 fold change (YES1; 10 uM KAM): -0.6732
IC50 (YES1; [2]): 0.458 µM
